Target: T1, GST-tagged-Wee1 kinase (Homo sapiens, UniProt P30291)
T1 construct: purchased Carnabio 05-177
Test: Wee1 time-resolved fluorescence equilibrium binding assay (displacement of Oregon Green-labeled ATP-competitive probe)
Conditions: TR-FRET probe displacement; 2 nM GST-Wee1, 300 nM probe, 1 hour incubation; read-out: Wee-1 binding (Ki nM)
Procedure: Wee1 kinase was assayed using a time-resolved fluorescence equilibrium binding assay monitoring displacement of a rapidly reversible Oregon Green-labeled ATP-competitive kinase probe (N-(2-(2-(2-(4-(4-(5-chloro-4-(2-(1-hydroxycyclobutyl)thiazol-5-yl)-1H-pyrrolo[2,3-b]pyridin-2-yl)phenyl)piperazin-1-yl)ethoxy)ethoxy)ethyl)-2′,7′-difluoro-3′,6′-dihydroxy-3-oxo-3H-spiro[isobenzofuran-1,9′-xanthene]-5-carboxamide) by competitive Wee1 inhibitors.

T1 sequence (P30291 whole entry): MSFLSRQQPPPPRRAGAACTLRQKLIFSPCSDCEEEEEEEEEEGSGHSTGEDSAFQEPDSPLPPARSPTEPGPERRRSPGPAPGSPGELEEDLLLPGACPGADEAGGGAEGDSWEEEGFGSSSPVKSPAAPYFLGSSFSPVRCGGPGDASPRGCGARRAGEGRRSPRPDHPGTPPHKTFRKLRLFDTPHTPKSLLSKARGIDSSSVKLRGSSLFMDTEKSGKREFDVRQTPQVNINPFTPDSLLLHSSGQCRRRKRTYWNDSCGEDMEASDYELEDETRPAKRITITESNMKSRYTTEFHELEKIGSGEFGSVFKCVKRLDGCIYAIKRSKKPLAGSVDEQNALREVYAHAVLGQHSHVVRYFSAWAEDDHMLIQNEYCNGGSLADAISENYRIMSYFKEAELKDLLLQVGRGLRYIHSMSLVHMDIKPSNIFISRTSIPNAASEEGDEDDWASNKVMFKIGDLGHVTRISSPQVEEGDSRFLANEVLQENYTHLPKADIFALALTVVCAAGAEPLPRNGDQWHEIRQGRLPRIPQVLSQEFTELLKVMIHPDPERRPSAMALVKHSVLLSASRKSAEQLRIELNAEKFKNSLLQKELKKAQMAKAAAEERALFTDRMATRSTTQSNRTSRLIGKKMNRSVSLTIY

| Structure (SMILES) | Ki |
| --- | --- |
| CCCN1c2cc(-n3cncn3)ccc2-c2nc(Nc3ccc(N4CCN(C)CC4)cc3)ncc2S1(=O)=O [Example 94, N-[4-(4-methylpiperazin-1-yl)phenyl]-6-propyl-8-(1H-1,2,4-triazol-1-yl)-6H-pyrimido[5,4-c][2,1]benzothiazin-2-amine 5,5-dioxide] | 7 nM |
| CCCN1c2ccc(-c3ccccc3)cc2-c2nc(Nc3ccc(N4CCN(C)CC4)cc3)ncc2S1(=O)=O [Example 97, N-[4-(4-methylpiperazin-1-yl)phenyl]-9-phenyl-6-propyl-6H-pyrimido[5,4-c][2,1]benzothiazin-2-amine 5,5-dioxide] | 6 nM |
| CCCN1c2ccc(-c3cccc(C(=O)NC)c3)cc2-c2nc(Nc3ccc(N4CCN(C)CC4)cc3)ncc2S1(=O)=O [Example 100, N-methyl-3-(2-{[4-(4-methylpiperazin-1-yl)phenyl]amino}-5,5-dioxido-6-propyl-6H-pyrimido[5,4-c][2,1]benzothiazin-9-yl)benzamide] | 4 nM |
| CCCN1c2ccc(-c3ccccc3CN(C)C)cc2-c2nc(Nc3ccc(N4CCN(C)CC4)cc3)ncc2S1(=O)=O [Example 101, 9-{2-[(dimethylamino)methyl]phenyl}-N-[4-(4-methylpiperazin-1-yl)phenyl]-6-propyl-6H-pyrimido[5,4-c][2,1]benzothiazin-2-amine 5,5-dioxide] | 7.6 nM |
| C=CCN1c2ncccc2-c2nc(Nc3ccc(N4CCN(C)CC4)cn3)ncc2S1(=O)=O [Example 102, N-[5-(4-methylpiperazin-1-yl)pyridin-2-yl]-6-(prop-2-en-1-yl)-6H-pyrido[2,3-c]pyrimido[4,5-e][1,2]thiazin-2-amine 5,5-dioxide] | 210 nM |
| C=CCN1c2ncccc2-c2nc(Nc3ccc(N4CCNCC4)cn3)ncc2S1(=O)=O [Example 103, N-[5-(piperazin-1-yl)pyridin-2-yl]-6-(prop-2-en-1-yl)-6H-pyrido[2,3-c]pyrimido[4,5-e][1,2]thiazin-2-amine 5,5-dioxide] | 110 nM |

Continued by falling Ki, values first:

| Ki | Structure (SMILES) |
| --- | --- |
| 591 nM | COC(=O)c1ccc2c(c1)N(Cc1c(Cl)cccc1Cl)S(=O)(=O)c1cnc(Nc3ccc(N4CCN(C)CC4)cc3)nc1-2 [Example 95, methyl 6-(2,6-dichlorobenzyl)-2-{[4-(4-methylpiperazin-1-yl)phenyl]amino}-6H-pyrimido[5,4-c][2,1]benzothiazine-8-carboxylate 5,5-dioxide] |
| 3 nM | CCCN1c2ccc(-c3ccncc3)cc2-c2nc(Nc3ccc(N4CCN(C)CC4)cc3)ncc2S1(=O)=O [Example 99, N-[4-(4-methylpiperazin-1-yl)phenyl]-6-propyl-9-(pyridin-4-yl)-6H-pyrimido[5,4-c][2,1]benzothiazin-2-amine 5,5-dioxide] |
| 2.4 nM | CCCN1c2ccc(-c3cccnc3)cc2-c2nc(Nc3ccc(N4CCN(C)CC4)cc3)ncc2S1(=O)=O [Example 98, N-[4-(4-methylpiperazin-1-yl)phenyl]-6-propyl-9-(pyridin-3-yl)-6H-pyrimido[5,4-c][2,1]benzothiazin-2-amine 5,5-dioxide] |
| 2 nM | CCCN1c2ccc(Br)cc2-c2nc(Nc3ccc(N4CCN(C)CC4)cc3)ncc2S1(=O)=O [Example 96, 9-bromo-N-[4-(4-methylpiperazin-1-yl)phenyl]-6-propyl-6H-pyrimido[5,4-c][2,1]benzothiazin-2-amine 5,5-dioxide] |

From patent publication US8716297B2, “Chemical entities to be used for Wee1 inhibition for the treatment of cancer” (AbbVie Inc., priority 2011, dated 2014)
